Reference: patent US20020048549A1, “Radioactive transition metal nitride heterocomplex” (priority 1996, published 2002)

Assay: Stability of the complex / its solution after preparation
Type: physicochemical
Settings: reaction solution after preparation
Method: In a mixture of 0.6 ml of ethanol and […] ( 1 mol/l) of an aqueous HCl solution were dissolved 5 mg of SDH and 1.5 mg of PNP, followed by adding thereto a physiologically acceptable ^99mTcO4^− solution ( 0.5 ml, 50 MBq). The resulting mixture was heated at 80° C. for 20 minutes and then cooled to 40° C., after which 0.25 ml of HCO3^−/CO3^2− buffer was added thereto to adjust the pH at about 8.0. Subsequently, a solution of 0.5 mg of βglu in 1.5 ml of water was added. The complex finally obtained was analyzed by […] and HPLC. […] The radiochemical purity of the final complex was higher than 95%. […]
In a mixture of 0.6 ml of ethanol and […] ( 1 mol/l) of an aqueous HCl solution were dissolved 5 mg of SDH and 1.5 mg of PNP, followed by adding thereto a physiologically acceptable ^99mTcO4 solution ( 0.5 ml, 50 MBq). […] The complex finally obtained was analyzed by HTLC and HPLC. […]
In a mixture of 0.6 ml of ethanol and 0.1 mg (1 mol/l) of an aqueous HCl solution were dissolved 5 mg of SDH and 1.5 mg of PNP, followed by adding thereto a physiologically acceptable ^99mTcO4^− solution (0.5 ml, 50 MBq). […] The complex finally obtained was analyzed by HTLC and HPLC. […]

Row | SMILES | stability of the complex / solution of the complex
1 | CCN1CC[PH](c2ccccc2)(c2ccccc2)[99Tc]2(#[N])([O]C(=O)c3ccccc3[S]2)[PH](c2ccccc2)(c2ccccc2)CC1 [Example 3] | stable
2 | CCON(CC)C1=[S+][99Tc]2(#[N])([S]1)[PH](c1ccccc1)(c1ccccc1)CCN(CC)CC[PH]2(c1ccccc1)c1ccccc1 [Example 4] | stable
